Assay results as given in ChEMBL document CHEMBL4513146, “CO-ADD screening of Karazin Kharkiv National University (Ukraine) compounds”.

Legend:
[1] = tested on: Escherichia coli; experiment: microbe, parasite or virus in culture; conditions: ATCC 25922, 18 h, ASSAY_TEST Inhibition of Bacterial Growth, detection method Absorption (OD600), MEDIA CAMHB, plate type 384well, NBS, CORNING #3640
Description: Antibacterial activity against Escherichia coli ATCC 25922 (CO-ADD:GN_001); MIC in CAMBH media using NBS plates, by OD(600)

[2] = tested on: Klebsiella pneumoniae; experiment: microbe, parasite or virus in culture; conditions: ATCC 700603, 18 h, ASSAY_TEST Inhibition of Bacterial Growth, detection method Absorption (OD600), MEDIA CAMHB, plate type 384well, NBS, CORNING #3640
Description: Antibacterial activity against Klebsiella pneumoniae MDR ATCC 70063 (CO-ADD:GN_003); MIC in CAMBH media using NBS plates, by OD(600)

[3] = tested on: Pseudomonas aeruginosa; experiment: microbe, parasite or virus in culture; conditions: ATCC 27853, 18 h, ASSAY_TEST Inhibition of Bacterial Growth, detection method Absorption (OD600), MEDIA CAMHB, plate type 384well, NBS, CORNING #3640
Description: Antibacterial activity against Pseudomonas aeruginosa ATCC 27853 (CO-ADD:GN_042); MIC in CAMBH media using NBS plates, by OD(600)

[4] = tested on: HEK293; experiment: cells; format: functional; conditions: Homo sapiens, ATCC CRL1573, HEK293; ASSAY_TEST Inhibition of Cell Viability; detection method Resazurin; Fluorescence (ex560/em590); MEDIA DMEM with 10% FBS; plate type 384well; TC; CORNING #3712; time 18 hr
[5] = tested on: Cryptococcus neoformans
Description: Antifungal activity against Cryptococcus neoformans H99 ATCC 208821 (CO-ADD:FG_002); MIC in YNB media using NBS plates, by Resazurin OD(600-570)

[6] = tested on: Candida albicans; experiment: microbe, parasite or virus in culture; conditions: ATCC 90028, ASSAY_TEST Inhibition of Fungal Growth, detection method Absorption (OD530)
Description: Antifungal activity against Candida albicans ATCC 90028 (CO-ADD:FG_001); MIC in YNB media using NBS plates, by OD630

[7] = tested on: Staphylococcus aureus; experiment: microbe, parasite or virus in culture; conditions: ATCC 43300, 18 h, ASSAY_TEST Inhibition of Bacterial Growth, detection method Absorption (OD600), MEDIA CAMHB, plate type 384well, NBS, CORNING #3640
Description: Antibacterial activity against Staphylococcus aureus MRSA ATCC 43300 (CO-ADD:GP_020); MIC in CAMBH media, using NBS plates, by OD(600)

[8] = tested on: Acinetobacter baumannii; experiment: microbe, parasite or virus in culture; conditions: ATCC 19606, 18 h, ASSAY_TEST Inhibition of Bacterial Growth, detection method Absorption (OD600), MEDIA CAMHB, plate type 384well, NBS, CORNING #3640
Description: Antibacterial activity against Acinetobacter baumannii ATCC 19606 (CO-ADD:GN_034); MIC in CAMBH media using NBS plates, by OD600

[9] = tested on: Pseudomonas aeruginosa; experiment: Antibacterial activity against Pseudomonas aeruginosa PAO397 [PAO1 d(mexAB-oprM) d(mexCD-oprJ) d(mexEF-oprN) d(mexJKL) d(mexXY) d(opmH)] (CO-ADD:GN_211); MIC in CAMBH media using NBS plates, by OD(600); format: functional; conditions: ASSAY_TEST Inhibition of Bacterial Growth, detection method Absorption (OD600), MEDIA CAMHB, plate type 384well, CORNING #3640, time 18 hr

Row | MIC [1] | MIC [2] | MIC [3] | MIC [5] | MIC [6] | MIC [7] | MIC [8] | MIC [9] | Compound | CC50 [4]
1 | > 32 µg/mL | > 32 µg/mL | > 32 µg/mL | > 32 µg/mL | > 32 µg/mL | > 32 µg/mL | > 32 µg/mL |  | Cc1cccc(NC(=O)Cn2nc3c(Sc4ccc(C)cc4C)nccn3c2=O)c1 | > 32 µg/mL
2 | > 32 µg/mL | > 32 µg/mL | > 32 µg/mL | > 32 µg/mL | > 32 µg/mL | > 32 µg/mL | > 32 µg/mL | > 32 µg/mL | Cc1ccc(CN(c2ccc(F)c(F)c2)S(=O)(=O)c2cccn3cnnc23)cc1 | > 32 µg/mL
